Laboratory results: PubChem BioAssay AID248 (DTP/NCI, 2004)
Several values for one entry are separate records, joined by “and”; a condition that tells them apart may be missing. Identical values can stand only once. Toxic doses and inconclusive results are not listed. No stated cut-off is given here; in the data, active means T/C of 150% or more; inactive means T/C below 125%.

System: L1210 leukemia ip in BDF1 mice, survival T/C
Assay: NCI In Vivo Anticancer Drug Screen. Data for tumor model L1210 Leukemia (intraperitoneal) in B6D2F1 (BDF1) mice
Conditions: endpoint: mean survival time, higher = longer survival
Method in brief: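 Transplantable tumor model; survival measured in treated vs vehicle control mice. Value = treated/control.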

[1] = dose: 25.0 mg/kg/injection, schedule: Q01DX009 (ip), vehicle: carboxymethylcellulose (CMC)
[2] = dose: 50.0 mg/kg/injection, schedule: Q01DX009 (ip), vehicle: carboxymethylcellulose (CMC)
[3] = dose: 100.0 mg/kg/injection, schedule: Q04DX003 (ip), vehicle: Klucel (hydroxypropylcellulose) (HPC)
[4] = dose: 200.0 mg/kg/injection, schedule: Q04DX003 (ip), vehicle: Klucel (hydroxypropylcellulose) (HPC)
[5] = dose: 100.0 mg/kg/injection, schedule: Q01DX009 (ip), vehicle: Klucel (hydroxypropylcellulose) (HPC)
[6] = dose: 200.0 mg/kg/injection, schedule: Q01DX009 (ip), vehicle: Klucel (hydroxypropylcellulose) (HPC)
[7] = dose: 400.0 mg/kg/injection, schedule: Q01DX009 (ip), vehicle: Klucel (hydroxypropylcellulose) (HPC)
[8] = dose: 400.0 mg/kg/injection, schedule: Q04DX003 (ip), vehicle: Klucel (hydroxypropylcellulose) (HPC)
[9] = dose: 100.0 mg/kg/injection, schedule: Q01DX009 (ip), vehicle: saline
[10] = dose: 100.0 mg/kg/injection, schedule: Q04DX003 (ip), vehicle: saline
[11] = dose: 200.0 mg/kg/injection, schedule: Q01DX009 (ip), vehicle: saline
[12] = dose: 200.0 mg/kg/injection, schedule: Q04DX003 (ip), vehicle: saline
[13] = dose: 400.0 mg/kg/injection, schedule: Q01DX009 (ip), vehicle: saline
[14] = dose: 400.0 mg/kg/injection, schedule: Q04DX003 (ip), vehicle: saline
[15] = dose: 100.0 mg/kg/injection, schedule: Q01DX009 (ip), vehicle: carboxymethylcellulose (CMC)
[16] = dose: 100.0 mg/kg/injection, schedule: Q04DX003 (ip), vehicle: carboxymethylcellulose (CMC)
[17] = dose: 200.0 mg/kg/injection, schedule: Q04DX002 (ip), vehicle: carboxymethylcellulose (CMC)
[18] = dose: 200.0 mg/kg/injection, schedule: Q04DX003 (ip), vehicle: carboxymethylcellulose (CMC)
[19] = dose: 100.0 mg/kg/injection, schedule: Q04DX002 (ip), vehicle: Klucel (hydroxypropylcellulose) (HPC)
[20] = dose: 400.0 mg/kg/injection, schedule: Q04DX002 (ip), vehicle: Klucel (hydroxypropylcellulose) (HPC)

Measured: T/C

NC(N)=N/N=C(/c1ccccc1)c1ccc(F)cc1
inactive: dose: 6.25 mg/kg/injection, schedule: Q01DX009 (ip), vehicle: carboxymethylcellulose (CMC) 95 % of control | dose: 12.5 mg/kg/injection, schedule: Q01DX009 (ip), vehicle: carboxymethylcellulose (CMC) 97 % of control | dose: 15.0 mg/kg/injection, schedule: Q01DX Z (ip), vehicle: saline 95 % of control | dose: 15.0 mg/kg/injection, schedule: Q01DX Z (oral), vehicle: saline 107 % of control | dose: 20.0 mg/kg/injection, schedule: Q01DX001 (ip), vehicle: other 107 % of control | dose: 20.0 mg/kg/injection, schedule: Q01DX009 (ip), vehicle: carboxymethylcellulose (CMC) 94 % of control | dose: 20.0 mg/kg/injection, schedule: Q01DX009 (ip), vehicle: other 103 % of control | [1] 103 % of control | dose: 30.0 mg/kg/injection, schedule: Q01DX Z (ip), vehicle: saline 108 % of control | dose: 30.0 mg/kg/injection, schedule: Q01DX Z (oral), vehicle: saline 107 % of control | dose: 40.0 mg/kg/injection, schedule: Q01DX001 (ip), vehicle: other 110 % of control | dose: 40.0 mg/kg/injection, schedule: Q01DX009 (ip), vehicle: carboxymethylcellulose (CMC) 94 % of control | dose: 40.0 mg/kg/injection, schedule: Q01DX009 (ip), vehicle: other 90 % of control | [2] 115 % of control | dose: 80.0 mg/kg/injection, schedule: Q01DX009 (ip), vehicle: carboxymethylcellulose (CMC) 118 % of control

Nc1c(C(=O)O)cc(Br)c2c1C(=O)c1ccccc1C2=O
inactive: [3] 97 % of control | [4] 95 % of control

COc1cc2c(cc1OC)C1=CC(=O)N3CCCC34OS(=O)OC14CC2 (centres undefined)
inactive: [5] 97 % of control | [3] 98 % of control | [6] 100 % of control | [4] 96 % of control | [7] 96 % of control | [8] 96 % of control

CCOP(=O)(NN(C)C)OCC
inactive: dose: 12.5 mg/kg/injection, schedule: Q01DX009 (ip), vehicle: saline 107 % of control | dose: 12.5 mg/kg/injection, schedule: Q04DX003 (ip), vehicle: saline 96 % of control | dose: 25.0 mg/kg/injection, schedule: Q01DX009 (ip), vehicle: saline 104 % of control | dose: 25.0 mg/kg/injection, schedule: Q04DX003 (ip), vehicle: saline 104 % of control | dose: 50.0 mg/kg/injection, schedule: Q01DX009 (ip), vehicle: saline 102 % of control | dose: 50.0 mg/kg/injection, schedule: Q04DX003 (ip), vehicle: saline 107 % of control | [9] 102 % of control | [10] 101 % of control | [11] 95 % of control | [12] 106 % of control | [13] 112 % of control | [14] 96 % of control

O=C(O)c1ccc(SSc2ccc(C(=O)O)cc2)cc1
inactive: [1] 93 % of control and 100 % of control | dose: 25.0 mg/kg/injection, schedule: Q04DX002 (ip), vehicle: carboxymethylcellulose (CMC) 96 % of control and 103 % of control | [2] 97 % of control and 98 % of control | dose: 50.0 mg/kg/injection, schedule: Q04DX002 (ip), vehicle: carboxymethylcellulose (CMC) 94 % of control and 90 % of control | dose: 50.0 mg/kg/injection, schedule: Q04DX003 (ip), vehicle: carboxymethylcellulose (CMC) 98 % of control and 89 % of control | dose: 100.0 mg/kg/injection, schedule: Q01DX001 (ip), vehicle: carboxymethylcellulose (CMC) 93 % of control and 88 % of control | [15] 92 % of control and 94 % of control and 100 % of control | [16] 110 % of control and 89 % of control | dose: 200.0 mg/kg/injection, schedule: Q01DX001 (ip), vehicle: carboxymethylcellulose (CMC) 97 % of control and 100 % of control | [17] 97 % of control | [18] 88 % of control and 91 % of control | dose: 400.0 mg/kg/injection, schedule: Q01DX001 (ip), vehicle: carboxymethylcellulose (CMC) 110 % of control

CCOC(=O)CCN1CCCC1
inactive: [9] 110 % of control | [10] 94 % of control | [11] 106 % of control | [12] 103 % of control | [13] 105 % of control | [14] 103 % of control

O=C(Nc1ccccc1)Oc1ccc(Cl)cc1Cc1ccccc1
inactive: [19] 87 % of control | [20] 101 % of control

CS(=O)(=O)n1c(CBr)nc2ccccc21
inactive: dose: 100.0 mg/kg/injection, schedule: Q04DX003 (ip), vehicle: saline sonified 103 % of control | dose: 200.0 mg/kg/injection, schedule: Q04DX003 (ip), vehicle: saline sonified 88 % of control

CS(=O)(=O)CCCl
inactive: [15] 102 % of control and 106 % of control | [19] 103 % of control | dose: 100.0 mg/kg/injection, schedule: Q04DX002 (ip), vehicle: carboxymethylcellulose (CMC) 100 % of control and 109 % of control | [16] 107 % of control | dose: 200.0 mg/kg/injection, schedule: Q01DX009 (ip), vehicle: carboxymethylcellulose (CMC) 98 % of control and 102 % of control | dose: 200.0 mg/kg/injection, schedule: Q04DX002 (ip), vehicle: Klucel (hydroxypropylcellulose) (HPC) 103 % of control | [17] 97 % of control and 98 % of control | [18] 98 % of control | [20] 103 % of control | dose: 400.0 mg/kg/injection, schedule: Q04DX002 (ip), vehicle: carboxymethylcellulose (CMC) 102 % of control and 105 % of control | dose: 400.0 mg/kg/injection, schedule: Q04DX003 (ip), vehicle: carboxymethylcellulose (CMC) 102 % of control

O=C1c2ccccc2C(Cl)=C(Cl)C1(Cl)Cl
inactive: dose: 25.0 mg/kg/injection, schedule: Q01DX009 (ip), vehicle: Klucel (hydroxypropylcellulose) (HPC) 90 % of control | dose: 50.0 mg/kg/injection, schedule: Q01DX009 (ip), vehicle: Klucel (hydroxypropylcellulose) (HPC) 90 % of control | [5] 90 % of control | [3] 96 % of control

C/C=C/CC1(c2ccccc2)C(=O)NC(=S)NC1=O
inactive: dose: 75.0 mg/kg/injection, schedule: Q01DX001 (ip), vehicle: other 108 % of control | dose: 150.0 mg/kg/injection, schedule: Q01DX001 (ip), vehicle: other 107 % of control | dose: 300.0 mg/kg/injection, schedule: Q01DX001 (ip), vehicle: other 103 % of control

O=S(=O)(c1ccc(O)c(F)c1)c1ccc(O)c(F)c1
inactive: dose: 100.0 mg/kg/injection, schedule: Q04DX002 (ip), vehicle: gum acacia 90 % of control | dose: 200.0 mg/kg/injection, schedule: Q04DX002 (ip), vehicle: gum acacia 101 % of control

O=C(Nc1ccc(C2=NCCN2)c(O)c1)c1ccc(C(=O)Nc2ccc(C3=NCCN3)c(O)c2)cc1
inactive: dose: 8.0 mg/kg/injection, schedule: Q01DX Z (ip), vehicle: carboxymethylcellulose (CMC) 103 % of control | dose: 16.0 mg/kg/injection, schedule: Q01DX Z (ip), vehicle: carboxymethylcellulose (CMC) 88 % of control | dose: 31.0 mg/kg/injection, schedule: Q01DX Z (ip), vehicle: carboxymethylcellulose (CMC) 88 % of control | dose: 62.0 mg/kg/injection, schedule: Q01DX Z (ip), vehicle: carboxymethylcellulose (CMC) 90 % of control

Nc1nc(C=O)c(Cc2ccc(Br)cc2)c(=O)[nH]1
inactive: dose: 100.0 mg/kg/injection, schedule: Q01DX009 (ip), vehicle: saline with Tween-80 118 % of control | dose: 100.0 mg/kg/injection, schedule: Q04DX003 (ip), vehicle: saline with Tween-80 100 % of control | dose: 200.0 mg/kg/injection, schedule: Q04DX003 (ip), vehicle: saline with Tween-80 105 % of control | dose: 400.0 mg/kg/injection, schedule: Q04DX003 (ip), vehicle: saline with Tween-80 102 % of control

Brc1nnnn1-c1ccccc1
inactive: [5] 99 % of control | [3] 97 % of control | [6] 98 % of control | [4] 108 % of control | [7] 96 % of control | [8] 94 % of control

OCc1ccc(O)cn1
inactive: dose: 100.0 mg/kg/injection, schedule: Q01DX001 (ip), vehicle: saline 97 % of control | dose: 200.0 mg/kg/injection, schedule: Q01DX001 (ip), vehicle: saline 87 % of control | dose: 400.0 mg/kg/injection, schedule: Q01DX001 (ip), vehicle: saline 94 % of control
